Experimental data: US20260070945A1, “MACROCYCLIC IMMUNOMODULATORS” (Bristol-Myers Squibb Company, priority 2022, published 2026)
Where a SMILES comes first, the peptide text is derived from it. Bridges are numbered along the chain shown (N, C = ends). [ ]: non-standard residue; d: D form. The star is where a group is joined. Phe(4-COOH) = N[C@@H](Cc1ccc(C(=O)O)cc1)C(=O)O; Bip = N[C@@H](Cc1ccc(-c2ccccc2)cc1)C(=O)O; Phe(3-Me) = Cc1cccc(C[C@H](N)C(=O)O)c1; Cha = N[C@@H](CC1CCCCC1)C(=O)O; Carboxymethyl = O=C(O)C*; NMeA = CN[C@@H](C)C(=O)O; Orn = NCCC[C@H](N)C(=O)O; Aun = NCCCCCCCCCCC(=O)O; Dab = NCC[C@H](N)C(=O)O; Dap = NC[C@H](N)C(=O)O

target: T1, PD-1/PD-L1 interaction (PE-labeled human PD-L1-Ig binding to Jurkat cell line over-expressing human PD-1) (Homo sapiens, UniProt Q15116); assay: Jurkat-PD-1 Cell Binding High-Content Screening Assay (CBA); conditions: Jurkat-hPD-1 cells, PE-labeled PD-L1-Ig 20 nM final; read-out: Jurkat HPD1 PDL1 IC50
T1 construct: expressed in transfected cells; host or cells: Jurkat
T1 sequence (Q15116 25-288): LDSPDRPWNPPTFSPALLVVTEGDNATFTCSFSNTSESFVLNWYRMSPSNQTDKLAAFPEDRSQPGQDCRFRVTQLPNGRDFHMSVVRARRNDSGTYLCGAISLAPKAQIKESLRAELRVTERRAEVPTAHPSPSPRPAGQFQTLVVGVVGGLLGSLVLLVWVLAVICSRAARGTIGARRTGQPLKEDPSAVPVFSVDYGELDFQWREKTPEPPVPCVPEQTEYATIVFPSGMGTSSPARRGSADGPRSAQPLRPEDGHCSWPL
Method: Example 2: Jurkat-PD-1 Cell Binding High-Content Screening Assay (CBA)
Phycoerythrin (PE) was covalently linked to the Ig epitope tag of human PD-L1-Ig and fluorescently-labeled PD-L1-Ig was used for binding studies with a Jurkat cell line over-expressing human PD-1 (Jurkat-PD-1). Briefly, 8×10^3 Jurkat-hPD-1 cells were seeded into 384 well plates in 20 μl of DMEM supplemented with 10% fetal calf serum. 100 nl of compound was added to cells followed by incubation at 37° C. for 2 hours. Then, 5 μl of PE-labeled PD-L1-Ig (20 nM final), diluted in DMEM supplemented with 10% fetal calf serum. After 1 hour incubation, cells were fixed with […] in dPBS containing 10 μg/ml Hoechst 33342 and then washed 3× in 100 μl dPBS. Data was collected and processed using a Cell Insight NXT High Content Imager and associated software.

Q: How did the IC50 turn out when CC(C)C[C@@H]1NC(=O)[C@H](Cc2c[nH]c3ccccc23)NC(=O)[C@H](CC(=O)O)NC(=O)[C@H](Cc2ccc(C(=O)O)cc2)NC(=O)[C@H](Cc2ccc(OCC(=O)O)cc2)NC(=O)CSC[C@@H](C(=O)NCC(=O)N[C@@H](CCC(=O)O)C(=O)NCC(=O)NCCCCCCCCCCC(=O)O)NC(=O)[C@H](CO)NC(=O)[C@H](C(C)C)NC(=O)[C@H](CC2CCCCC2)NC(=O)[C@H](CCN)NC(=O)[C@@H](CC(C)C)NC(=O)[C@H](C)N(C)C(=O)[C@H](C(C)C)NC(=O)[C@H](Cc2ccc(-c3ccccc3)cc2)NC1=O [Example 1032] ({CH2CO}-Y(Carboxymethyl)[Phe(4-COOH)]DWL[Bip]V[NMeA][dL][Dab][Cha]VSCGEG[Aun]-OH; thioether N-14) was run?
A: Its IC50 is 0.0159 µM.

Q: Which IC50 does the source give for CC(C)C[C@@H]1NC(=O)[C@H](Cc2c[nH]c3ccccc23)NC(=O)[C@H](CC(=O)O)NC(=O)[C@H](Cc2ccc(C(=O)O)cc2)NC(=O)[C@H](Cc2ccc(OCC(=O)O)cc2)NC(=O)CSC[C@@H](C(=O)NCC(=O)N[C@@H](CC(=O)O)C(=O)NCC(=O)NCCCCCCCCCCC(=O)O)NC(=O)[C@H](CO)NC(=O)[C@H](C(C)C)NC(=O)[C@H](CC2CCCCC2)NC(=O)[C@H](CCN)NC(=O)[C@@H](CC(C)C)NC(=O)[C@H](C)N(C)C(=O)[C@H](C(C)C)NC(=O)[C@H](Cc2ccc(-c3ccccc3)cc2)NC1=O [Example 1033] ({CH2CO}-Y(Carboxymethyl)[Phe(4-COOH)]DWL[Bip]V[NMeA][dL][Dab][Cha]VSCGDG[Aun]-OH; thioether N-14) here?
A: Its IC50 is 0.0205 µM.

Q: For CC(C)C[C@@H]1NC(=O)[C@H](Cc2c[nH]c3ccccc23)NC(=O)[C@H](CC(=O)O)NC(=O)[C@H](Cc2ccc(C(=O)O)cc2)NC(=O)[C@H](Cc2ccc(OCC(=O)O)cc2)NC(=O)CSC[C@@H](C(=O)N[C@@H](CCC(=O)O)C(=O)NCC(=O)NCCCCCCCCCCC(=O)O)NC(=O)[C@H](CO)NC(=O)[C@H](C(C)C)NC(=O)[C@H](CC2CCCCC2)NC(=O)[C@H](CCN)NC(=O)[C@@H](CC(C)C)NC(=O)[C@H](C)N(C)C(=O)[C@H](C(C)C)NC(=O)[C@H](Cc2ccc(-c3ccccc3)cc2)NC1=O [Example 1035] ({CH2CO}-Y(Carboxymethyl)[Phe(4-COOH)]DWL[Bip]V[NMeA][dL][Dab][Cha]VSCEG[Aun]-OH; thioether N-14), which IC50 is on record?
A: Its IC50 is 0.0194 µM.

Q: For CC(C)C[C@@H]1NC(=O)[C@H](Cc2c[nH]c3ccccc23)NC(=O)[C@H](CC(=O)O)NC(=O)[C@H](Cc2ccc(C(=O)O)cc2)NC(=O)[C@H](Cc2ccc(OCC(=O)O)cc2)NC(=O)CSC[C@@H](C(=O)NCC(=O)N[C@@H](CN)C(=O)NCCCCCCCCCCC(=O)O)NC(=O)[C@H](CO)NC(=O)[C@H](C(C)C)NC(=O)[C@H](CC2CCCCC2)NC(=O)[C@H](CCN)NC(=O)[C@@H](CC(C)C)NC(=O)[C@H](C)N(C)C(=O)[C@H](C(C)C)NC(=O)[C@H](Cc2ccc(-c3ccccc3)cc2)NC1=O [Example 1036] ({CH2CO}-Y(Carboxymethyl)[Phe(4-COOH)]DWL[Bip]V[NMeA][dL][Dab][Cha]VSCG[Dap][Aun]-OH; thioether N-14), which IC50 is on record?
A: Its IC50 is 0.0115 µM.

Q: For CC(C)C[C@@H]1NC(=O)[C@H](Cc2c[nH]c3ccccc23)NC(=O)[C@H](CC(=O)O)NC(=O)[C@H](Cc2ccc(C(=O)O)cc2)NC(=O)[C@H](Cc2ccc(OCC(=O)O)cc2)NC(=O)CSC[C@@H](C(=O)NCC(=O)N[C@@H](CCN)C(=O)NCCCCCCCCCCC(=O)O)NC(=O)[C@H](CO)NC(=O)[C@H](C(C)C)NC(=O)[C@H](CC2CCCCC2)NC(=O)[C@H](CCN)NC(=O)[C@H](CC(C)C)NC(=O)[C@H](C)N(C)C(=O)[C@H](C(C)C)NC(=O)[C@H](Cc2ccc(-c3ccccc3)cc2)NC1=O [Example 1037] ({CH2CO}-Y(Carboxymethyl)[Phe(4-COOH)]DWL[Bip]V[NMeA]L[Dab][Cha]VSCG[Dab][Aun]-OH; thioether N-14), which IC50 is on record?
A: The IC50 was 0.0136 µM.

Q: For CC(C)C[C@@H]1NC(=O)[C@H](Cc2c[nH]c3ccccc23)NC(=O)[C@H](CC(=O)O)NC(=O)[C@H](Cc2ccc(C(=O)O)cc2)NC(=O)[C@H](Cc2ccc(OCC(=O)O)cc2)NC(=O)CSC[C@@H](C(=O)NCC(=O)N[C@@H](CCCN)C(=O)NCCCCCCCCCCC(=O)O)NC(=O)[C@H](CO)NC(=O)[C@H](C(C)C)NC(=O)[C@H](CC2CCCCC2)NC(=O)[C@H](CCN)NC(=O)[C@H](CC(C)C)NC(=O)[C@H](C)N(C)C(=O)[C@H](C(C)C)NC(=O)[C@H](Cc2ccc(-c3ccccc3)cc2)NC1=O [Example 1038] ({CH2CO}-Y(Carboxymethyl)[Phe(4-COOH)]DWL[Bip]V[NMeA]L[Dab][Cha]VSCG[Orn][Aun]-OH; thioether N-14), which IC50 is on record?
A: The IC50 was 0.0132 µM.

Q: Which IC50 does the source give for CC(C)C[C@@H]1NC(=O)[C@H](Cc2c[nH]c3ccccc23)NC(=O)[C@H](CC(=O)O)NC(=O)[C@H](Cc2ccc(C(=O)O)cc2)NC(=O)[C@H](Cc2ccc(OCC(=O)O)cc2)NC(=O)CSC[C@@H](C(=O)NCC(=O)N[C@@H](CCCCN)C(=O)NCCCCCCCCCCC(=O)O)NC(=O)[C@H](CO)NC(=O)[C@H](C(C)C)NC(=O)[C@H](CC2CCCCC2)NC(=O)[C@H](CCN)NC(=O)[C@@H](CC(C)C)NC(=O)[C@H](C)N(C)C(=O)[C@H](C(C)C)NC(=O)[C@H](Cc2ccc(-c3ccccc3)cc2)NC1=O [Example 1039] ({CH2CO}-Y(Carboxymethyl)[Phe(4-COOH)]DWL[Bip]V[NMeA][dL][Dab][Cha]VSCGK[Aun]-OH; thioether N-14) here?
A: Its IC50 is 0.0128 µM.

Q: For CC(C)C[C@@H]1NC(=O)[C@H](Cc2c[nH]c3ccccc23)NC(=O)[C@H](CC(=O)O)NC(=O)[C@H](Cc2ccc(C(=O)O)cc2)NC(=O)[C@H](Cc2ccc(OCC(=O)O)cc2)NC(=O)CSC[C@@H](C(=O)NCC(=O)N[C@@H](CCC(=O)O)C(=O)NCCCCCCCCCCC(=O)O)NC(=O)[C@H](CO)NC(=O)[C@H](C(C)C)NC(=O)[C@H](CC2CCCCC2)NC(=O)[C@H](CCN)NC(=O)[C@@H](CC(C)C)NC(=O)[C@H](C)N(C)C(=O)[C@H](C(C)C)NC(=O)[C@H](Cc2ccc(-c3ccccc3)cc2)NC1=O [Example 1040] ({CH2CO}-Y(Carboxymethyl)[Phe(4-COOH)]DWL[Bip]V[NMeA][dL][Dab][Cha]VSCGE[Aun]-OH; thioether N-14), which IC50 is on record?
A: The IC50 was 0.014 µM.

Q: For CC(C)C[C@@H]1NC(=O)[C@H](Cc2c[nH]c3ccccc23)NC(=O)[C@H](CC(=O)O)NC(=O)[C@H](Cc2ccc(C(=O)O)cc2)NC(=O)[C@H](Cc2ccc(OCC(=O)O)cc2)NC(=O)CSC[C@@H](C(=O)NCC(=O)N[C@@H](CC(=O)O)C(=O)NCCCCCCCCCCC(=O)O)NC(=O)[C@H](CO)NC(=O)[C@H](C(C)C)NC(=O)[C@H](CC2CCCCC2)NC(=O)[C@H](CCN)NC(=O)[C@@H](CC(C)C)NC(=O)[C@H](C)N(C)C(=O)[C@H](C(C)C)NC(=O)[C@H](Cc2ccc(-c3ccccc3)cc2)NC1=O [Example 1041] ({CH2CO}-Y(Carboxymethyl)[Phe(4-COOH)]DWL[Bip]V[NMeA][dL][Dab][Cha]VSCGD[Aun]-OH; thioether N-14), which IC50 is on record?
A: Its IC50 is 0.0138 µM.

Q: How did the IC50 turn out when Cc1cccc(C[C@@H]2NC(=O)[C@H](CC(=O)O)NC(=O)[C@H](Cc3ccc(OCC(=O)O)cc3)NC(=O)[C@H](CN)NC(=O)CSC[C@@H](C(=O)NCC(=O)N[C@@H](CN)C(=O)NCC(=O)NCCCCCCCCCCC(=O)O)NC(=O)[C@H](CO)NC(=O)[C@H](C(C)C)NC(=O)[C@H](CC(C)C)NC(=O)[C@H](CC(N)=O)NC(=O)[C@@H](CC(C)C)NC(=O)[C@H](C)N(C)C(=O)[C@H](C(C)C)NC(=O)[C@H](Cc3ccc(-c4ccccc4)cc3)NC(=O)[C@H](CC(C)C)NC2=O)c1 [Example 1052] ({CH2CO}-[Dap]Y(Carboxymethyl)D[Phe(3-Me)]L[Bip]V[NMeA][dL]NLVSCG[Dap]G[Aun]-OH; thioether N-14) was run?
A: Its IC50 is 0.0184 µM.
